Test results reported in paper PMC6503114, “Application of Antimicrobial Peptides of the Innate Immune System in Combination With Conventional Antibiotics—A Novel Way to Combat Antibiotic Resistance?” (Frontiers in Cellular and Infection Microbiology, 2019).
≈ marks a conversion by molar mass, not a printed value. Where two headings read alike, the source gives them in different places. Where no end group is shown, it is not given here.

What was measured:
[1] = test system: MRSA ATCC 33591; assay: microbe, parasite or virus in culture; assay type: cell-based, Staphylococcus aureus; conditions: median of 3–6 experiments, square brackets = twice the maximal tested concentration
Experimental: (§7) Prior to the “checkerboard” synergy test the minimal inhibitory concentrations (MIC) of individual substances were determined using broth microdilution assay. Testing was performed in 60-well polystyrene Terasaki microplates with V-shaped bottom generally according to the guidelines of the European Committee for Antimicrobial Susceptibility Testing with subtle modifications designed for AMP testing (Tossi et al., [1997]; Wiegand et al., [2008]). Cultivation of bacteria was carried out in 2.1% Müller-Hinton broth at 37°C with shaking. Two-fold serial dilutions of peptides, antibiotics and other antimicrobials were made with 10 mM sodium phosphate buffer, pH 7.4, containing 0.1% of BSA. The plates were preliminary incubated with 0.1% BSA for 1 h at 37°C to reduce a non-specific binding of peptides to the plates. After that BSA was removed, and serial dilutions were added into the plate wells in triplicates followed by the same volume of the suspension of bacterial cells in logarithmic phase of growth in concentration of 1 × 10^6 CFU/ml. After the 18 h overnight incubation at 37°C, the MIC value for each compound was determined as its lowest concentration completely inhibiting the visible growth of bacteria. The final results were calculated as median values based on 3–6 independent experiments.

[2] = test system: M. luteus CIP A270; assay: microbe, parasite or virus in culture; assay type: cell-based, Micrococcus luteus
Experimental: as §7

[3] = test system: Human PBMC; assay: MTT-test
Experimental: To obtain neutrophils and mononuclear cells, whole heparinized blood was diluted with sterile PBS in a 1:1 ratio and carefully inserted into the sterile polystyrene 50 ml tube upon the 5 ml of the sterile Ficoll-400 (Pharmacia, Sweden) with a density of 1.077. The tube was centrifuged at 600 g and 4°C for 40 min. After separation, the mononuclear “ring” located between the blood plasma and Ficoll was collected with a Pasteur pipette, transferred to another tube, and washed twice with 10 ml of sterile PBS by centrifugation for 10 min at 300 g and 4°C.
(§1) We calculated Fractional Effective Concentration Index (FECI), which could be seen as a particular case of the interaction index (I) proposed by Berenbaum ([1977]) or of the similar combination index (CI) proposed by Chou and Talalay ([1983]), according to the equation below: […]
(§2) Here, [MEC A] and [MEC B] are the minimum effective concentrations (MEC) of substances A and B, when they are used alone. […] [A] and [B] are respective concentrations of substances A and B in their combination, where the same statistically significant difference is detected. A non-parametric Mann-Whitney U-test (p < 0.05 or p < 0.01) was used for the mentioned statistical comparison.
(§3) We have chosen the same intervals as that of FICI to determine synergy, additivity, independent action, and antagonism based on the minimal FECI values. However, in case of cytotoxic or hemolytic effect we were interested mainly in testing the possibility of additive or synergistic interaction itself, and not in assessing the exact magnitude of such interaction. Thus, in contrast to the “checkerboard titration” method used for combined antimicrobial activity investigation, studying the combined cytotoxic effect, we considered only two combinations of concentrations for the substances A and B in the mixture: • (½ MEC A + ½ MEC B), which, if found effective, provides the FECI value of 1 (the threshold value for additivity); • (¼ MEC A + ¼ MEC B), which, if found effective, provides the FECI value of 0.5 (the threshold value for synergetic interaction).
(§4) When action on tumor cells was tested in combination with antitumor antibiotic the lower concentrations up to ( 1/16 MEC A + 1/16 MEC B) as in checkerboard titration were additionally examined to assess the magnitude of synergistic effect more precisely. The final conclusion was made based on the three independent experiments.
(§5) Standard MTT-test (Mosmann, [1983]) was used for the examination of the cytotoxic activity of antimicrobial compounds and their combinations toward varied eukaryotic cells. Briefly, cell suspensions in RPMI-1640 prepared as described in Eukaryotic Cells were dispensed into the 96-well microplates (2 × 10^5 cells/well). Then, serial dilutions of AMPs, or other antibiotic compounds, or their mixtures in RPMI-1640 were added. In positive controls (100% cell survival) the according volume of RPMI-1640 without test substances was added instead. The final volume in each well was 100 μl. Negative controls (0% cell survival) were made with 100 μl of the sterile RPMI-1640. The plates were incubated at 37°C under 5% CO2 for 24 h. Four hours before the end of incubation, 10 μl of metabolic marker MTT−3-(4,5-dimethylthiazol-2-yl)-2,5-diphenyltetrazolium bromide (5 mg/ml, diluted in PBS) was added to each well. Incubation was stopped by adding 90 μl of isopropanol containing 0.04 M HCl. Content of the wells was thoroughly mixed, so that the formazan crystals, formed in case of the reduction of MTT in presence of actively metabolizing cells, were fully dissolved. The optical density of the samples was evaluated at 540 nm, subtracting the background absorbance at 690 nm, by SpectraMax 250 Spectrophotometer (Molecular Devices, USA). The experiments were repeated at least three times. In each experiment test samples were made in triplicates and control samples were made in hexaplicates.

[4] = test system: Human neutrophils
Experimental: The pellet formed under the Ficoll-400 layer after separation contained both neutrophils and erythrocytes. It was also transferred into a separate tube, where the red blood cells were lysed with 0.83% ammonium chloride solution, which was added in a ratio of 1:4. After the thorough mixing, the suspension was incubated for 10 min at room temperature, and then centrifuged for 10 min at 300 g and 4°C. The resulting precipitate containing neutrophils was washed twice with the sterile PBS.
as §1, §2, §3, §4, §5

[5] = test system: Murine peritoneal macrophages; assay: MTT-test
Experimental: (§6) Before the cells extraction, mice were sacrificed by cervical dislocation in accordance with the supplement to the Directive 86/609/EEC and its update Directive 2010/63/EU addressing the recommendations for euthanasia of experimental animals (Close et al., [1996]). To obtain peritoneal macrophages, healthy mice were used. The abdominal cavity of each animal was washed with 3 ml of sterile PBS using a Pasteur pipette. The culture of EAC cells was kindly provided by Dr. E.P. Kiseleva (Immunology Department of the Institute of Experimental Medicine, Saint Petersburg, Russia). On the tenth day after the intraperitoneal tumor inoculation, 0.5–1.5 ml of ascitic fluid containing EAC cells was obtained from the abdominal cavity of the animals. Murine cells (normal or tumor) were washed twice with 10 ml of sterile PBS and resuspended in RPMI-1640 medium as described above for human neutrophils and PBMC.
as §1, §2, §3, §4
as §5, with “dissolved.” for “dissolved. The optical density of the samples was evaluated at 540 nm, subtracting the background absorbance at 690 nm, by SpectraMax 250 Spectrophotometer (Molecular Devices, USA). The experiments were repeated at least three times. In each experiment test samples were made in triplicates and control samples were made in hexaplicates.”

[6] = test system: Murine EAC; assay: MTT-test; assay type: cell-based, mice; conditions: Murine EAC tumor cells, 24 h
Experimental: as §6, §1, §2, §3, §4
as §5, with “dissolved.” for “dissolved. The optical density of the samples was evaluated at 540 nm, subtracting the background absorbance at 690 nm, by SpectraMax 250 Spectrophotometer (Molecular Devices, USA). The experiments were repeated at least three times. In each experiment test samples were made in triplicates and control samples were made in hexaplicates.”

[7] = Staphylococcus aureus, read-out: MIC
[8] = Micrococcus luteus, CIPA270, median of 3–6 experiments
[9] = Human PBMC, normal cells, MTT, 24 h, square brackets = twice the maximal tested concentration
[10] = Human neutrophils, normal cells, MTT, 24 h
[11] = Murine peritoneal macrophages, normal cells, MTT, 24 h

Molecule | MIC [1, 7] [µM] | MIC [2, 8] [µM] | MEC of cytotoxic action ([3]; human, 24 h) | MEC of cytotoxic action ([4]; human, 24 h) | MEC of cytotoxic action ([5]; mouse, 24 h) | MEC of cytotoxic action [6] | MIC [1] | MIC ([2]; median of 3–6 experiments) [µM] | MEC of cytotoxic action [3] | MEC of cytotoxic action [4] | MEC of cytotoxic action [5] | MEC of cytotoxic action [3, 9] [µM] | MEC of cytotoxic action [4, 10] | MEC of cytotoxic action [5, 11] | MIC ([1]; read-out: MIC) [µM]
CO[C@H]1/C=C/O[C@@]2(C)Oc3c(C)c(O)c4c(O)c(c(/C=N/N5CCN(C)CC5)c(O)c4c3C2=O)NC(=O)/C(C)=C\C=C\[C@H](C)[C@H](O)[C@@H](C)[C@@H](O)[C@@H](C)[C@H](OC(C)=O)[C@@H]1C [Rifampicin] | 0.003 (≈ 0.00247 µg/mL) | 0.003 (≈ 0.00247 µg/mL) | >20 [40] μM | 20 µM | >20 [40] μM | >20 [40] μM | – | – | – | – | – | – | – | – | –
Lysozyme: egg white lysozyme, antimicrobial protein, from BioChemica | – | – | – | – | – | 50 µM | >250 [500] μM | 0.08 | >50 [100] μM | >50 [100] μM | >50 [100] μM | – | – | – | –
CC[C@H](C)[C@H](NC(=O)[C@H](CCCCN)NC(=O)[C@H](CCC(=O)O)NC(=O)[C@H](CCCCN)NC(=O)[C@H](CO)NC(=O)[C@H](CCCCN)NC(=O)[C@H](CCCNC(=N)N)NC(=O)[C@H](Cc1ccccc1)NC(=O)[C@H](Cc1ccccc1)NC(=O)[C@H](CC(=O)O)NC(=O)CNC(=O)[C@H](CC(C)C)NC(=O)[C@@H](N)CC(C)C)C(=O)NCC(=O)N[C@@H](CCCCN)C(=O)N[C@@H](CCC(=O)O)C(=O)N[C@@H](Cc1ccccc1)C(=O)N[C@@H](CCCCN)C(=O)N[C@@H](CCCNC(=N)N)C(=O)N[C@H](C(=O)N[C@H](C(=O)N[C@@H](CCC(N)=O)C(=O)N[C@@H](CCCNC(=N)N)C(=O)N[C@H](C(=O)N[C@@H](CCCCN)C(=O)N[C@@H](CC(=O)O)C(=O)N[C@@H](Cc1ccccc1)C(=O)N[C@@H](CC(C)C)C(=O)N[C@@H](CCCNC(=N)N)C(=O)N[C@@H](CC(N)=O)C(=O)N[C@@H](CC(C)C)C(=O)N[C@H](C(=O)N1CCC[C@H]1C(=O)N[C@@H](CCCNC(=N)N)C(=O)N[C@H](C(=O)N[C@@H](CCC(=O)O)C(=O)N[C@@H](CO)C(=O)O)[C@@H](C)O)C(C)C)[C@@H](C)CC)C(C)C)[C@@H](C)CC [LL-37] | – | – | – | – | – | 10 µM | – | – | – | – | – | 12 | 10 µM | >20 [40] μM | –
CNC(C)C1CCC(N)C(OC2C(N)CC(N)C(OC3OCC(C)(O)C(NC)C3O)C2O)O1 (centres unmarked) [Gentamicin] | 0.16 (≈ 0.0764 µg/mL) | 0.16 (≈ 0.0764 µg/mL) | >50 [100] μM | 50 µM | >50 [100] μM | >50 [100] μM | – | – | – | – | – | – | – | – | –
Cc1onc(-c2ccccc2)c1C(=O)N[C@@H]1C(=O)N2[C@@H]1SC(C)(C)[C@@H]2C(=O)O [Oxacillin] | 7.5 (≈ 3.01 µg/mL) | 3.1 (≈ 1.24 µg/mL) | >50 [100] μM | >50 [100] μM | >50 [100] μM | >50 [100] μM | – | – | – | – | – | – | – | – | –
RFRLPFRRPPIRIHPPPFYPPFRRFL-NH2 (C-terminus assumed) [ChBac3.4] | – | – | – | – | – | 5.0 µM | – | – | 20 µM | >20 [40] μM | >20 [40] μM | – | – | – | –
CC1COc2c(N3CCN(C)CC3)c(F)cc3c(=O)c(C(=O)O)cn1c23 (centres unmarked) [Ofloxacin] | 0.625 (≈ 0.226 µg/mL) | 5 (≈ 1.81 µg/mL) | >50 [100] μM | >50 [100] μM | >50 [100] μM | >50 [100] μM | – | – | – | – | – | – | – | – | –
Polymyxin B | – | – | – | – | – | 50 µM | – | 0.6 | – | – | – | 50 | >50 [100] μM | 50 µM | 12.5
